In patent publication US12173018B2, “Penicillin-binding protein inhibitors” (priority 2018, dated 2024):
Values after ≈ are worked out from the molar mass of the structure shown. Like-named read-outs stand apart in the source and are kept apart here.

Key:
E. coli PBP2 = E. coli PBP2 (Escherichia coli (strain K12), UniProt P0AD65); assay: E. coli PBP2 Bocillin-FL fluorescence polarization competition binding assay
Method in brief: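 Fluorescence polarization competition with Bocillin-FL (0.1 μM final) and purified PBP2 (1.5 μM final) in 50 mM Hepes pH 8.0, 300 mM NaCl, 5% glycerol. FP (ex 490/em 520 nm) read for 90 min after Bocillin-FL addition; EC50 is the inhibitor concentration reducing Bocillin-FL binding by half.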

E. coli PBP4 = E. coli PBP4 (Escherichia coli (strain K12), UniProt P24228); assay: E. coli PBP4 Bocillin-FL fluorescence polarization competition binding assay; details: fluorescence polarization competition binding with Bocillin-FL; read-out: E. coli K12 PBP4 Potency (EC50)
Chain of E. coli PBP4 (P24228 21-477): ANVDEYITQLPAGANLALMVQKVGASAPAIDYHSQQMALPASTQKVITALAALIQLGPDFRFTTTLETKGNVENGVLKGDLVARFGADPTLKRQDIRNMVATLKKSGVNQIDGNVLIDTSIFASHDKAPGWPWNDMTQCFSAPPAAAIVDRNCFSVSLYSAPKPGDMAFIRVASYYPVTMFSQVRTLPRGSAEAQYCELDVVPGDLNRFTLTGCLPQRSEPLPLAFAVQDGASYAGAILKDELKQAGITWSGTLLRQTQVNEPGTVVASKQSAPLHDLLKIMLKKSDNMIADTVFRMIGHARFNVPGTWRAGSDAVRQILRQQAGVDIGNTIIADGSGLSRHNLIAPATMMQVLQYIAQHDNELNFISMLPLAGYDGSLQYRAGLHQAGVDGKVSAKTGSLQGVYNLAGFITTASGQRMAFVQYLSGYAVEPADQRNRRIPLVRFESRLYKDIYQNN
Excerpt: To determine the ability of boronic acid-based test PBP inhibitors to bind Penicillin Binding Proteins (PBPs), Bocillin-FL (fluorescently-labeled penicillin V; ThermoFisher Scientific) was used in a fluorescence polarization (FP) competition binding assay to assess inhibitor binding to PBP2, PBP3 or PBP4 from Escherichia coli. PBPs were cloned and purified as described previously (King, D. T, et al., ACS Infectious Diseases 2015, 1, 175-184). To establish assay conditions for competition binding, an enzyme titration/saturation binding experiment was initially performed. Bocillin-FL was prepared at 0.2 μM in a buffer comprised of 50 mM Hepes (pH 8.0), 300 mM NaCl and 5% (v/v) glycerol. Saturation binding was performed by mixing 40 μl of PBP solutions ranging in concentrations from 0-12 μM with 40 μl of the 0.2 μM Bocillin-FL solution, in individual wells of a black 384-well microplate. FP was measured immediately upon mixing (Excitation, 490 nm; Emission, 520 nm; g-factor, 0.96), using a Cytation3 (BioTek) microplate reader and measured continuously for up to 120 minutes. […] Assays (80 μl final volume) were performed with PBPs at a final concentration of 1.5 μM, Bocillin-FL at 0.1 μM and beta-lactam concentrations that ranged from 0-1000 μM. […] Bocillin-FL was added and the FP immediately measured for 60 minutes (90 minutes for PBP2). The beta-lactam potency was reported as the concentration of beta-lactam required to reduce binding of Bocillin-FL by […] (EC50). […] Binding assays for boronic acid PBP inhibitors were performed in an identical fashion.

[1] = test system: engineered strain of Escherichia coli harboring CTX-M15; assay: microbe, parasite or virus in culture; assay type: cell-based; details: Escherichia coli
[2] = fluorescence polarization competition binding with Bocillin-FL, read-out: E. coli K12 PBP2 Potency (EC50)
[3] = read-out: Microbiological Activity (MIC in mg/L), E. coli DH5α/pLBII-CTX-M15, engineered strain producing CTX-M15

Chain of E. coli PBP2 (P0AD65 whole entry): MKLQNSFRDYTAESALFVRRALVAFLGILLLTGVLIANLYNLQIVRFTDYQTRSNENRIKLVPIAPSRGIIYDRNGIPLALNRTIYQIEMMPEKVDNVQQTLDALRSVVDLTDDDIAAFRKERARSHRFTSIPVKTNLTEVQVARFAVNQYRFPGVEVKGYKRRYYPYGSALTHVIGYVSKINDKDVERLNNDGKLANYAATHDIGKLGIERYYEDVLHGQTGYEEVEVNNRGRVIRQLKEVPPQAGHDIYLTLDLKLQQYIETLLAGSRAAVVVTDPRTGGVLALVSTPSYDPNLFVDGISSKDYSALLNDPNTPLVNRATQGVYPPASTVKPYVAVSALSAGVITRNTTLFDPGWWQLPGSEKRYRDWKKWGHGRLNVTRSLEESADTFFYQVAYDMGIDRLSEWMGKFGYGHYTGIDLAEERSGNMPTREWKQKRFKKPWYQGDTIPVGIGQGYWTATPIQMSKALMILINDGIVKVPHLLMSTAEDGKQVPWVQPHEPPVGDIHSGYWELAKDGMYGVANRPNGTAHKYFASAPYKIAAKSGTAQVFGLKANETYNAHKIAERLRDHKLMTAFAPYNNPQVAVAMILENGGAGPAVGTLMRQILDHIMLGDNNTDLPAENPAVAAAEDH

| SMILES | EC50 (E. coli PBP2; [2]) [µM] | EC50 (E. coli PBP4) [µM] | MIC [1, 3] [mg/L] | further results |
| --- | --- | --- | --- | --- |
| CCN1CCN(C(=O)NC(C(=O)N[C@H]2Cc3cccc(C(=O)O)c3OB2O)c2csc(N)n2)C(=O)C1=O (stereo partly drawn) [Example 5, (3R)-3-(2-(2-aminothiazol-4-yl)-2-(4-ethyl-2,3-dioxopiperazine-1-carboxamido)acetamido)-2-hydroxy-3,4-dihydro-2H-benzo[e][1,2]oxaborinine-8-carboxylic acid] | 30 to 500 | > 500 | – | – |
| CCN1CCN(C(=O)NC(C(=O)N[C@H]2Cc3cccc(C(=O)O)c3OB2O)c2ccc(O)c(O)c2Cl)C(=O)C1=O (stereo partly drawn) [Example 37, (3R)-3-(2-(2-chloro-3,4-dihydroxyphenyl)-2-(4-ethyl-2,3-dioxopiperazine-1-carboxamido)acetamido)-2-hydroxy-3,4-dihydro-2H-benzo[e][1,2]oxaborinine-8-carboxylic acid] | – | > 500 | 8 to 16 (≈ 13.9 to 27.8 µM) | – |
| CCN1CCN(C(=O)NC(C(=O)N[C@H]2Cc3cccc(C(=O)O)c3OB2O)c2cnc(N)s2)C(=O)C1=O (stereo partly drawn) [Example 51, (3R)-3-(2-(2-aminothiazol-5-yl)-2-(4-ethyl-2,3-dioxopiperazine-1-carboxamido)acetamido)-2-hydroxy-3,4-dihydro-2H-benzo[e][1,2]oxaborinine-8-carboxylic acid] | > 500 | > 500 | – | – |
| CCN1CCN(C(=O)NC(C(=O)N[C@H]2Cc3cccc(C(=O)O)c3OB2O)c2ccc(O)c(O)c2F)C(=O)C1=O (stereo partly shown) [Example 70] | – | – | 32 to 64 (≈ 57.3 to 115 µM) | – |
| O=C(O)c1cccc2c1OB(O)[C@@H](NC(=O)C(NC(=O)N1CCN(CCF)C(=O)C1=O)c1ccc(O)c(O)c1Cl)C2 (stereo partly drawn) [Example 71, (3R)-3-(2-(2-chloro-3,4-dihydroxyphenyl)-2-(4-(2-fluoroethyl)-2,3-dioxopiperazine-1-carboxamido)acetamido)-2-hydroxy-3,4-dihydro-2H-benzo[e][1,2]oxaborinine-8-carboxylic acid] | – | – | 8 to 16 (≈ 13.5 to 27 µM) | – |
| CCCN1CCN(C(=O)NC(C(=O)N[C@H]2Cc3cccc(C(=O)O)c3OB2O)c2ccc(O)c(O)c2Cl)C(=O)C1=O (stereo partly drawn) [Example 82, (3R)-3-(2-(2-chloro-3,4-dihydroxyphenyl)-2-(2,3-dioxo-4-propylpiperazine-1-carboxamido)acetamido)-2-hydroxy-3,4-dihydro-2H-benzo[e][1,2]oxaborinine-8-carboxylic acid] | – | > 500 | 32 to 64 (≈ 54.4 to 109 µM) | – |
| CCN1CCN(C(=O)NC(C(=O)N[C@H]2Cc3cccc(C(=O)O)c3OB2O)c2ccc(S(N)(=O)=O)cc2)C(=O)C1=O (stereo partly drawn) [Example 102, (3R)-3-(2-(4-ethyl-2,3-dioxopiperazine-1-carboxamido)-2-(4-sulfamoylphenyl)acetamido)-2-hydroxy-3,4-dihydro-2H-benzo[e][1,2]oxaborinine-8-carboxylic acid] | > 500 | – | 8 to 16 (≈ 13.6 to 27.2 µM) | – |
| NS(=O)(=O)c1ccc(C(NC(=O)N2CCN(CCF)C(=O)C2=O)C(=O)N[C@H]2Cc3cccc(C(=O)O)c3OB2O)cc1 (stereo partly drawn) [Example 103, (3R)-3-(2-(4-(2-fluoroethyl)-2,3-dioxopiperazine-1-carboxamido)-2-(4-sulfamoylphenyl)acetamido)-2-hydroxy-3,4-dihydro-2H-benzo[e][1,2]oxaborinine-8-carboxylic acid] | > 500 | – | – | – |
| CCN1CCN(C(=O)NC(C(=O)N[C@H]2Cc3cccc(C(=O)O)c3OB2O)c2cccc(N)n2)C(=O)C1=O (stereo partly drawn) [Example 104, (3R)-3-(2-(6-aminopyridin-2-yl)-2-(4-ethyl-2,3-dioxopiperazine-1-carboxamido)acetamido)-2-hydroxy-3,4-dihydro-2H-benzo[e][1,2]oxaborinine-8-carboxylic acid] | – | – | – | EC50 (E. coli PBP2): 30 to 500 µM |
| CCN1CCN(C(=O)NC(C(=O)N[C@H]2Cc3cccc(C(=O)[O-])c3OB2O)c2ccc[n+](CC(N)=O)c2)C(=O)C1=O (stereo partly drawn) [Example 107, (3R)-3-(2-(1-(2-amino-2-oxoethyl)pyridin-1-ium-3-yl)-2-(4-ethyl-2,3-dioxopiperazine-1-carboxamido)acetamido)-2-hydroxy-3,4-dihydro-2H-benzo[e][1,2]oxaborinine-8-carboxylate] | – | – | 32 to 64 (≈ 56.5 to 113 µM) | – |
| CCN1CCN(C(=O)NC(C(=O)N[C@H]2Cc3ccc(F)c(C(=O)O)c3OB2O)c2csc(N)n2)C(=O)C1=O (stereo partly drawn) [Example 109, (3R)-3-(2-(2-aminothiazol-4-yl)-2-(4-ethyl-2,3-dioxopiperazine-1-carboxamido)acetamido)-7-fluoro-2-hydroxy-3,4-dihydro-2H-benzo[e][1,2]oxaborinine-8-carboxylic acid] | > 500 | – | 2 to 4 (≈ 3.65 to 7.3 µM) | – |
| CCN1CCN(C(=O)NC(C(=O)N[C@H]2Cc3cccc(C(=O)O)c3OB2O)c2ccc(B(O)O)cc2)C(=O)C1=O (stereo partly shown) [Example 112] | – | – | – | MIC ([1]; read-out: Microbiological Activity (MIC in mg/L), E. coli DH5α/pLBII-CTX-M15): 32 to 64 mg/L (≈ 58 to 116 µM) |
| O=C(O)c1cccc2c1OB(O)[C@@H](NC(=O)C(NC(=O)N1CCN(CCF)C(=O)C1=O)c1ccc(B(O)O)cc1)C2 (stereo partly drawn) [Example 113, (3R)-3-(2-(4-boronophenyl)-2-(4-(2-fluoroethyl)-2,3-dioxopiperazine-1-carboxamido)acetamido)-2-hydroxy-3,4-dihydro-2H-benzo[e][1,2]oxaborinine-8-carboxylic acid] | – | – | 32 to 64 (≈ 56.1 to 112 µM) | – |
| CCN1CCN(C(=O)NC(C(=O)N[C@H]2Cc3cccc(C(=O)O)c3OB2O)c2cccs2)C(=O)C1=O (stereo partly drawn) [Example 115, (3R)-3-(2-(4-ethyl-2,3-dioxopiperazine-1-carboxamido)-2-(thiophen-2-yl)acetamido)-2-hydroxy-3,4-dihydro-2H-benzo[e][1,2]oxaborinine-8-carboxylic acid] | – | – | 32 to 64 (≈ 62.2 to 124 µM) | – |
| CCN1CCN(C(=O)NC(C(=O)N[C@H]2Cc3cccc(C(=O)O)c3OB2O)c2ncc(O)cc2F)C(=O)C1=O (stereo partly drawn) [Example 135, (3R)-3-(2-(4-ethyl-2,3-dioxopiperazine-1-carboxamido)-2-(3-fluoro-5-hydroxypyridin-2-yl)acetamido)-2-hydroxy-3,4-dihydro-2H-benzo[e][1,2]oxaborinine-8-carboxylic acid] | 30 to 500 | – | – | – |
| CCN1CCN(C(=O)NC(C(=O)N[C@H]2Cc3ccc(F)c(C(=O)O)c3OB2O)c2cc(O)c(O)cc2F)C(=O)C1=O (stereo partly drawn) [Example 136, (3R)-3-(2-(4-ethyl-2,3-dioxopiperazine-1-carboxamido)-2-(2-fluoro-4,5-dihydroxyphenyl)acetamido)-7-fluoro-2-hydroxy-3,4-dihydro-2H-benzo[e][1,2]oxaborinine-8-carboxylic acid] | – | > 500 | – | – |
| CCN1CCN(C(=O)NC(C(=O)N[C@H]2Cc3ccc(F)c(C(=O)O)c3OB2O)c2ncc(O)cc2F)C(=O)C1=O (stereo partly drawn) [Example 145, (3R)-3-(2-(4-ethyl-2,3-dioxopiperazine-1-carboxamido)-2-(3-fluoro-5-hydroxypyridin-2-yl)acetamido)-7-fluoro-2-hydroxy-3,4-dihydro-2H-benzo[e][1,2]oxaborinine-8-carboxylic acid] | – | > 500 | – | – |
| CCN1CCN(C(=O)NC(C(=O)N[C@H]2Cc3cccc(C(=O)O)c3OB2O)c2ncc(O)cc2Cl)C(=O)C1=O (stereo partly drawn) [Example 150, (3R)-3-(2-(4-ethyl-2,3-dioxopiperazine-1-carboxamido)-2-(3-chloro-5-hydroxypyridin-2-yl)acetamido)-2-hydroxy-3,4-dihydro-2H-benzo[e][1,2]oxaborinine-8-carboxylic acid] | > 500 | – | – | – |
| CCN1CCN(C(=O)NC(C(=O)N[C@H]2Cc3ccc(F)c(C(=O)O)c3OB2O)c2ncc(O)cc2Cl)C(=O)C1=O (stereo partly drawn) [Example 151, (3R)-3-(2-(3-chloro-5-hydroxypyridin-2-yl)-2-(4-ethyl-2,3-dioxopiperazine-1-carboxamido)acetamido)-7-fluoro-2-hydroxy-3,4-dihydro-2H-benzo[e][1,2]oxaborinine-8-carboxylic acid] | > 500 | – | – | – |
